Test results from ChEMBL document CHEMBL1201862, “PubChem BioAssay data set” (2004).
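Cultured in 96-well plates, cells were exposed to test compound for 48 hours across five concentrations. GI50 = concentration required for 50% inhibition of growth.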 The source made the active and inactive calls. Rule as the data show it: active = GI50 up to about 1.1 µM and inactive = higher.

Tests used:
Test in all cases: NCI-60 cell line screen, 48 h
DU-145 = test system: DU-145
ACHN = test system: ACHN
EKVX = test system: EKVX
UO-31 = test system: UO-31
OVCAR-4 = test system: OVCAR-4
CCRF-CEM = test system: CCRF-CEM
CAKI-1 = test system: CAKI-1
SK-MEL-2 = test system: SK-MEL-2
SK-MEL-28 = test system: SK-MEL-28
786-0 = test system: 786-0
Malme-3M = test system: Malme-3M
OVCAR-8 = test system: OVCAR-8
HL-60 = test system: HL-60
M14 = test system: M14
SR = test system: SR
NCI-H23 = test system: NCI-H23
KM12 = test system: KM12
SF-539 = test system: SF-539
BT-549 = test system: BT-549
NCI/ADR-RES = test system: NCI/ADR-RES

In the case of `COc1cc(/C=C2\C[C@H]3[C@@H]4CC=C5C[C@@H](OC(C)=O)CC[C@]5(C)[C@H]4CC[C@]3(C)\C2=N\O)cc(OC)c1OC`, the GI50 (DU-145) is reported as 4.42 µM (inactive), the GI50 (ACHN) is reported as 3.75 µM (inactive) and the GI50 (EKVX) is reported as 4.71 µM (inactive). The GI50 (UO-31) was 3.86 µM (inactive), the GI50 (OVCAR-4) was 3.37 µM (inactive) and the GI50 (CCRF-CEM) was 4.08 µM (inactive). For the same compound, the GI50 (CAKI-1) was 3.33 µM (inactive), the GI50 (SK-MEL-2) was 7.01 µM (inactive) and the GI50 (SK-MEL-28) was 5.58 µM (inactive). The GI50 (786-0) was 5.08 µM (inactive), the GI50 (Malme-3M) was 8.95 µM (inactive) and the GI50 (OVCAR-8) was 4.29 µM (inactive). For the same compound, the GI50 (HL-60) was 2.88 µM (inactive), the GI50 (M14) was 5.73 µM (inactive) and the GI50 (SR) was 3.58 µM (inactive). For the same compound, the GI50 (NCI-H23) was 5.7 µM (inactive), the GI50 (KM12) was 4.06 µM (inactive) and the GI50 (SF-539) was 4.33 µM (inactive). For the same compound, the GI50 (BT-549) was 5.01 µM (inactive) and the GI50 (NCI/ADR-RES) was 3.78 µM (inactive).

With `CCCCCOc1ccc(NC2=C(Cl)C(=O)c3c(O)ccc(O)c3C2=O)cc1` the GI50 (DU-145) was > 10 µM (inactive), the GI50 (ACHN) was > 10 µM (inactive) and the GI50 (EKVX) was > 10 µM (inactive). For the same compound, the GI50 (UO-31) was 5.26 µM (inactive), the GI50 (OVCAR-4) was 5.12 µM (inactive) and the GI50 (CCRF-CEM) was 3.52 µM (inactive). The GI50 (CAKI-1) was > 10 µM (inactive), the GI50 (SK-MEL-2) was > 10 µM (inactive) and the GI50 (SK-MEL-28) was 2.84 µM (inactive). The GI50 (786-0) was 1.6 µM (inactive), the GI50 (Malme-3M) was 2.49 µM (inactive) and the GI50 (OVCAR-8) was 2.99 µM (inactive). For the same compound, the GI50 (HL-60) was 1.37 µM (inactive), the GI50 (M14) was 3.03 µM (inactive) and the GI50 (SR) was 2.36 µM (inactive). The GI50 (NCI-H23) was 3.27 µM (inactive), the GI50 (KM12) was 4.14 µM (inactive) and the GI50 (SF-539) was 6.52 µM (inactive). For the same compound, the GI50 (BT-549) was 4.42 µM (inactive) and the GI50 (NCI/ADR-RES) was 6.04 µM (inactive).

In the case of `CC(C)=CCc1c2c(c(O)c3c(=O)c4c(oc13)-c1ccc(O)cc1OC4C=C(C)C)C=CC(C)(C)O2` (stereo not given), the GI50 (DU-145) is reported as 14 µM (inactive), the GI50 (ACHN) is reported as 11.8 µM (inactive) and the GI50 (EKVX) is reported as 14.9 µM (inactive). For the same compound, the GI50 (UO-31) was 18.3 µM (inactive), the GI50 (OVCAR-4) was 11.6 µM (inactive) and the GI50 (CCRF-CEM) was 3.99 µM (inactive). For the same compound, the GI50 (CAKI-1) was 20 µM (inactive), the GI50 (SK-MEL-2) was 12.6 µM (inactive) and the GI50 (SK-MEL-28) was 14.6 µM (inactive). For the same compound, the GI50 (786-0) was 11.4 µM (inactive), the GI50 (Malme-3M) was 19.3 µM (inactive) and the GI50 (OVCAR-8) was 13.3 µM (inactive). The GI50 (HL-60) was 15.2 µM (inactive), the GI50 (M14) was 18 µM (inactive) and the GI50 (SR) was 5.33 µM (inactive). The GI50 (NCI-H23) was 6.31 µM (inactive), the GI50 (KM12) was 8.04 µM (inactive) and the GI50 (SF-539) was 17.2 µM (inactive). For the same compound, the GI50 (BT-549) was 13.9 µM (inactive) and the GI50 (NCI/ADR-RES) was 16.9 µM (inactive).

`C/C(=N\Nc1nc2ccccc2[nH]1)c1ccc2ccccc2n1` was tested, and the GI50 (DU-145) was 1.91 µM (inactive), the GI50 (ACHN) was 3.15 µM (inactive) and the GI50 (EKVX) was 0.678 µM (active). The GI50 (UO-31) was 1.06 µM (active), the GI50 (OVCAR-4) was 1.85 µM (inactive) and the GI50 (CCRF-CEM) was 1.05 µM (active). The GI50 (CAKI-1) was 0.339 µM (active), the GI50 (SK-MEL-2) was 1.67 µM (inactive) and the GI50 (SK-MEL-28) was 3.79 µM (inactive). The GI50 (786-0) was 1.9 µM (inactive), the GI50 (Malme-3M) was 2.4 µM (inactive) and the GI50 (OVCAR-8) was 3.33 µM (inactive). For the same compound, the GI50 (HL-60) was 1.8 µM (inactive), the GI50 (M14) was 1.24 µM (inactive) and the GI50 (SR) was 0.08 µM (active). The GI50 (NCI-H23) was 3.89 µM (inactive), the GI50 (KM12) was 2.08 µM (inactive) and the GI50 (SF-539) was 3.27 µM (inactive). For the same compound, the GI50 (BT-549) was > 100 µM (inactive) and the GI50 (NCI/ADR-RES) was 1.85 µM (inactive).

`O=c1[nH]c(=O)n([C@H]2CCCO2)cc1F` was tested, and the GI50 (DU-145) was 748 µM (inactive), the GI50 (ACHN) was 977 µM (inactive) and the GI50 (EKVX) was 393 µM (inactive). The GI50 (UO-31) was 869 µM (inactive), the GI50 (OVCAR-4) was 2610 µM (inactive) and the GI50 (CCRF-CEM) was 982 µM (inactive). For the same compound, the GI50 (CAKI-1) was 828 µM (inactive), the GI50 (SK-MEL-2) was 719 µM (inactive) and the GI50 (SK-MEL-28) was 830 µM (inactive). The GI50 (786-0) was 984 µM (inactive), the GI50 (Malme-3M) was 493 µM (inactive) and the GI50 (OVCAR-8) was 655 µM (inactive). For the same compound, the GI50 (HL-60) was 644 µM (inactive), the GI50 (M14) was 740 µM (inactive) and the GI50 (SR) was 337 µM (inactive). The GI50 (NCI-H23) was 759 µM (inactive), the GI50 (KM12) was 813 µM (inactive) and the GI50 (SF-539) was 262 µM (inactive). The GI50 (BT-549) was 4000 µM (inactive) and the GI50 (NCI/ADR-RES) was 923 µM (inactive).

With `Nc1ncn([C@H]2C[C@H](O)[C@@H](CO)O2)c(=O)n1` [DECITABINE] the GI50 (DU-145) was 8.79 µM (inactive), the GI50 (ACHN) was 21.5 µM (inactive) and the GI50 (EKVX) was 104 µM (inactive). For the same compound, the GI50 (UO-31) was 298 µM (inactive), the GI50 (OVCAR-4) was 104 µM (inactive) and the GI50 (CCRF-CEM) was 4.59 µM (inactive). For the same compound, the GI50 (CAKI-1) was 219 µM (inactive), the GI50 (SK-MEL-2) was 38.1 µM (inactive) and the GI50 (SK-MEL-28) was 97.3 µM (inactive). The GI50 (786-0) was 9.42 µM (inactive), the GI50 (Malme-3M) was 127 µM (inactive) and the GI50 (OVCAR-8) was 16.9 µM (inactive). For the same compound, the GI50 (HL-60) was > 24.8 µM (inactive), the GI50 (M14) was 9.59 µM (inactive) and the GI50 (SR) was 2.67 µM (inactive). The GI50 (NCI-H23) was 118 µM (inactive), the GI50 (KM12) was 72.6 µM (inactive) and the GI50 (SF-539) was 92 µM (inactive). The GI50 (BT-549) was 13.6 µM (inactive) and the GI50 (NCI/ADR-RES) was > 347 µM (inactive).
